Test results from patent publication US10316371B2, “Screening methods for identifying specific Staphylococcus aureus inhibitors” (TRANA DISCOVERY, INC., priority 2011, dated 2019).
In brackets after ≈: the same amount, converted by molar mass. Read-outs that look alike come from different tables or passages of the source.

Experiments:
Format in all cases: cell-based
E. coli ESBL 4 = test: MIC; details: Escherichia coli, ESBL4; E. coli ESBL 4; read-out: MIC
[1] = tested on: non-S. aureus bacterial strains (Staph epi, E. faecium, E. faecalis, S. pneumoniae); test: Re-test against other bacteria; details: Gm (+) organisms (e.g. Staph epi, E. faecium and E. faecalis)
Source text: (§1) The compounds were re-tested against other bacteria, including Staphylococcus epidermidis (ATCC 35984), Staphylococcus epidermidis (MRSE), E. faecium 134529, E. faecium 145494, […], E. faecium 161651, S. pneumoniae 49619, and S. pneumoniae 149389.
In some cases, the compounds were as active, or nearly so, against the non-S. aureus bacterial strains. While not wishing to be bound to a particular theory, it is believed that these compounds function by stabilizing or inhibiting the complex between the mRNA Shine-Dalgarno sequence, and the anti-Shine Delgarno sequence in the ribosome, and inhibit protein translation in this manner, rather than by inhibiting the ASL Arg, and the codon encoding arginine (AGA), which is specific to S. aureus.

E. faecium 134529 = test: MIC; details: Enterococcus faecium; E. faecium 134529; read-out: MIC
Experimental: as §1
(§2) A series of compounds were evaluated for their activity against drug resistant S. aureus, including MSSA and MRSA strains.

S. epidermidis MRSE 01 = test: MIC; details: Staphylococcus epidermidis; S. epidermidis MRSE 01; read-out: MIC
Experimental: as §1, §2

E. faecalis 161651 = test: MIC; details: Enterococcus faecalis; E. faecalis 161651; read-out: MIC
Experimental: as §1, §2

S. pneumoniae 149389 = test: MIC; details: Streptococcus pneumoniae; S. pneumoniae 149389; read-out: MIC
Experimental: as §1, §2

S. epidermidis 35984 = test: MIC; details: Staphylococcus epidermidis; S. epidermidis 35984; read-out: MIC
Experimental: as §1, §2

E. faecium 145494 = test: MIC; details: Enterococcus faecium; E. faecium 145494; read-out: MIC
Experimental: as §1, §2

S. pneumoniae 49619 = test: MIC; details: Streptococcus pneumoniae; S. pneumoniae 49619; read-out: MIC
Experimental: as §1, §2

E. faecalis 29212 = test: MIC; details: Enterococcus faecalis; E. faecalis 29212; read-out: MIC
Experimental: as §1, §2

E. coli 25922 = test: MIC; details: Escherichia coli; E. coli 25922; read-out: MIC
Mammalian Cell Toxicity = details: human, MRC5 cells
S. aureus strain 29213 = test: Time-kill experiments; details: for time-kill activity (cidal / static): 8 hrs; for reduction of bacterial counts / reduction of bacterial counts (killing): by 8 hours
Experimental: (§3) Two compounds (#880 and #169) were tested in time-kill assays against S. aureus strain 29213. These compounds were then used to attempt to select for resistant variants by passaging at sub-MIC concentrations for 20 passages.
Twenty mL of MH-II media warmed to 37° C. was seeded with log-phase growth S. aureus strain 29213 at 1×10^6 cfu/mL in 50 mL erlenmeyer shake-flasks. Compound was added at 2× and 4× the MIC value. Negative controls (no drug) and positive drug controls (vancomycin at 2× and 4× the MIC) were included in the experiment. Flasks were shaken at 200 rpm and 37° C. Samples were taken at the times indicated (0, 2, 4, 6, 8 and 24 hrs post inoculation) and bacterial loads were quantified by limiting dilution assay.

[2] = tested on: Staphylococcus aureus strains (ATCC 33591, USA300, 158, 22, 2, ATCC 29213, 182); test: MIC screening of lead compounds against S. aureus strains; details: including vancomycin and methicillin resistant strains
Source text: A series of lead compounds identified in the in vitro screening were subjected to in vivo screening, to determine their effectiveness against S. aureus. The strains included Staphylococcus aureus, Methicillin Resistant (ATCC 33591), Methicillin-Resistant Staphylococcus aureus USA300, Staphylococcus aureus 158, Staphylococcus aureus 22, Staphylococcus aureus 2, Staphylococcus aureus (ATCC 29213), and Staphylococcus aureus 182.

S. aureus ATCC 29213 = test: Resistance passaging experiment; details: Staphylococcus aureus
Experimental: as §3
The selected strain for this experiment was S. aureus ATCC 29213. A frozen glycerol stock was streaked onto MH-II agar and grown overnight at 37° C. The next day, 3-5 colonies were picked and grown in 3 mL of MH-II broth at 37° C. with 200 rpm shaking for approximately 4 hours. A 2-fold microdilution (in round-bottom, 96-well plates) was made for each compound being tested. CLSI guidelines for broth microdilution were followed. Using the bacteria grown from the overnight colonies, each microdilution was inoculated at a final concentration of 5×10^5 colony forming units (CFU)/mL. The microdilutions were incubated at 37° C. for 16 to 20 hours, after which the minimal inhibitory concentration (MIC) of each was read visually. The MIC is defined as the lowest concentration of compound resulting in no visible bacterial growth. This activity is recorded as the MIC at Passage 0. The contents of the well in the next dilution lower in concentration than the MIC (i.e., ½ the MIC) was mixed with a micropipette and 50 μL was transferred to 3 mL of fresh MH-II broth. This was grown at 37° C. with 200 rpm shaking for approximately 4 hours, at which time the sample was turbid. A 1 mL aliquot of this sample was added to a cryovial containing 300 μL of glycerol. This was marked as passage 1, vortexed, than placed in a −80° C. freezer for storage. The rest of the culture was adjusted to a bacterial concentration of 1×10^6cfu/mL (OD600 of 0.004), which was then used to inoculate a microdilution of the same compound (final bacterial concentration of 5×10^5 cfu/mL). This was incubated at 37° C. for 16 to 20 hours. After that time the MIC was once again read and recorded as the MIC at Passage 1. This process was repeated through 20 passages. Ciprofloxacin was included as a control and an untreated sample was also passaged 20 times as a negative control.

[3] = ATCC29213, read-out: MIC in S. aureus 29213, Passage 14, passaged at sub-MIC
[4] = ATCC29213, read-out: MIC in S. aureus 29213, Passage 15, passaged at sub-MIC
[5] = ATCC29213, read-out: MIC in S. aureus 29213, Passage 16, passaged at sub-MIC
[6] = ATCC29213, read-out: MIC in S. aureus 29213, Passage 17, passaged at sub-MIC
[7] = ATCC29213, read-out: MIC in S. aureus 29213, Passage 18, passaged at sub-MIC
[8] = ATCC29213, read-out: MIC in S. aureus 29213, Passage 19, passaged at sub-MIC
[9] = ATCC29213, read-out: MIC in S. aureus 29213, Passage 20, passaged at sub-MIC
[10] = ATCC29213, read-out: MIC in S. aureus 29213, second Passage 20 line of Table 4 (untreated culture passaged 20 times)

Row | Compound | MIC (E. coli ESBL 4) [µg/mL] | spectrum of activity [1] | MIC (E. faecium 134529) [µg/mL] | MIC (S. epidermidis MRSE 01) [µg/mL] | MIC (E. faecalis 161651) [µg/mL] | MIC (S. pneumoniae 149389) [µg/mL] | MIC (S. epidermidis 35984) [µg/mL] | MIC (E. faecium 145494) [µg/mL] | MIC (S. pneumoniae 49619) [µg/mL] | MIC (E. faecalis 29212) [µg/mL] | MIC (E. coli 25922) [µg/mL] | CC50 (Mammalian Cell Toxicity) [µg/mL] | reduction of bacterial counts (S. aureus strain 29213; 2× the MIC) [log10] | time-kill activity (cidal / static) (S. aureus strain 29213; 4× the MIC) | reduction of bacterial counts (killing) (S. aureus strain 29213; 4× the MIC) [log10] | activity on types of S. aureus [2] | MIC (S. aureus ATCC 29213; [3]) [µg/mL] | MIC (S. aureus ATCC 29213; [4]) [µg/mL] | MIC (S. aureus ATCC 29213; [5]) [µg/mL] | MIC (S. aureus ATCC 29213; [6]) [µg/mL] | other results
1 | Cc1ccc2nc(-c3ccc(NC(=O)CN4CCN(CCO)CC4)cc3)sc2c1 [Compound #169, 2-[4-(2-hydroxyethyl)-1-piperazinyl]-N-[4-(6-methyl-1,3-benzothiazol-2-yl)phenyl]acetamide] | > 128 | broad spectrum for Gm (+) organisms | 16 (≈ 39 µM) | 16 (≈ 39 µM) | 16 (≈ 39 µM) | 128 (≈ 312 µM) | 16 (≈ 39 µM) | 16 (≈ 39 µM) | 64 (≈ 156 µM) | 64 (≈ 156 µM) | > 128 | < 2 | 1 | static activity | 1 | showed activity on all types of S. aureus | 32 (≈ 77.9 µM) | 32 (≈ 77.9 µM) | 32 (≈ 77.9 µM) | 32 (≈ 77.9 µM) | time-kill activity (cidal / static) (S. aureus strain 29213; 2× the MIC): static activity; time-kill result by 24 hrs post treatment (S. aureus strain 29213; 2× the MIC, 24 hrs): regrowth of bacteria; MIC (S. aureus ATCC 29213; ATCC29213, read-out: MIC in S. aureus 29213, Passage 4, passaged at sub-MIC): 32 µg/mL (≈ 77.9 µM); MIC (S. aureus ATCC 29213; [7]): 32 µg/mL (≈ 77.9 µM); MIC (S. aureus ATCC 29213; [8]): 32 µg/mL (≈ 77.9 µM); MIC (S. aureus ATCC 29213; [9]): 32 µg/mL (≈ 77.9 µM); MIC (S. aureus ATCC 29213; [10]): 32 µg/mL (≈ 77.9 µM)
2 | Brc1ccc(-c2nc(N3CCNCC3)c3ccccc3n2)cc1 [Compound #880, 2-(4-bromophenyl)-4-(1-piperazinyl)-quinazoline] | 64 (≈ 173 µM) | broad spectrum for Gm (+) organisms | 8 (≈ 21.7 µM) | 8 (≈ 21.7 µM) | 8 (≈ 21.7 µM) | 32 (≈ 86.7 µM) | 8 (≈ 21.7 µM) | 4 (≈ 10.8 µM) | 32 (≈ 86.7 µM) | 8 (≈ 21.7 µM) | 64 (≈ 173 µM) | 2.18 (≈ 5.9 µM) | 2.5 | rapidly cidal | > 3 | showed activity on all types of S. aureus | 16 (≈ 43.3 µM) | 16 (≈ 43.3 µM) | 16 (≈ 43.3 µM) | 16 (≈ 43.3 µM) | bacterial counts by 24 hrs post treatment (S. aureus strain 29213; 4× the MIC, 24 hrs): below detectable levels; MIC (S. aureus ATCC 29213; ATCC29213, read-out: MIC in S. aureus 29213, Passage 8, passaged at sub-MIC): 16 µg/mL (≈ 43.3 µM); MIC (S. aureus ATCC 29213; ATCC29213, read-out: MIC in S. aureus 29213, Passage 10, passaged at sub-MIC): 16 µg/mL (≈ 43.3 µM); MIC (S. aureus ATCC 29213; ATCC29213, read-out: MIC in S. aureus 29213, Passage 11, passaged at sub-MIC): 16 µg/mL (≈ 43.3 µM); MIC (S. aureus ATCC 29213; ATCC29213, read-out: MIC in S. aureus 29213, Passage 12, passaged at sub-MIC): 16 µg/mL (≈ 43.3 µM); MIC (S. aureus ATCC 29213; ATCC29213, read-out: MIC in S. aureus 29213, Passage 13, passaged at sub-MIC): 16 µg/mL (≈ 43.3 µM); MIC (S. aureus ATCC 29213; [7]): 16 µg/mL (≈ 43.3 µM); MIC (S. aureus ATCC 29213; [8]): 32 µg/mL (≈ 86.7 µM); MIC (S. aureus ATCC 29213; [9]): 32 µg/mL (≈ 86.7 µM); MIC (S. aureus ATCC 29213; [10]): 16 µg/mL (≈ 43.3 µM)
